Measurements reported in PMC11522085, “Studies on the mechanisms of action of MR33317” (Naunyn-Schmiedeberg's Archives of Pharmacology, 2024).

Molecular target: T1, 5-HT4-receptor (5-HT4B membrane preparations) (Homo sapiens, UniProt Q13639)
T1 construct: gene HTR4; 5-HT4B membrane preparations (HTS110M, Millipore), recombinant
Test: radioligand-type competition binding on recombinant 5-HT4B membranes (filtration); partial agonist in cAMP assay
Text: radioligand-type competition binding on recombinant 5-HT4B membranes (filtration); partial agonist in cAMP assay on 5-HT4-receptor (5-HT4B membrane preparations) | MR33317 bound with high affinity to recombinant 5-HT4-receptor.

T1 sequence (Q13639 whole entry): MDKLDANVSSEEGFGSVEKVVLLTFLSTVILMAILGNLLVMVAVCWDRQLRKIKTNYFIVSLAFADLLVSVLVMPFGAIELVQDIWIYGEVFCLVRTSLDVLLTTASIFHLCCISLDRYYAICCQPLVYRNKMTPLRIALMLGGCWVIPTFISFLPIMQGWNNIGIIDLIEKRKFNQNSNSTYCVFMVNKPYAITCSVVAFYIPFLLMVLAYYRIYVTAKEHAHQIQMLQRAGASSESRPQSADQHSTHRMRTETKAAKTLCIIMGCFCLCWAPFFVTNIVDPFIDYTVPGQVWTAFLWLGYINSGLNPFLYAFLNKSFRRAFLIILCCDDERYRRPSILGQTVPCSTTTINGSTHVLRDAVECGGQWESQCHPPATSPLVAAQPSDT

SMILES: COc1cc(N)c(Cl)cc1C(=O)CCC1CCN(Cc2cccc(N)c2)CC1 [MR33317]
- Ki: 42.5 ± 2.6 nM
